According to publication PMC7913621 (Molecules, 2021):

Assays:
[1] = test system: epidermoid carcinoma A-431; test: MTT cell viability assay, A-431; assay type: cell-based, human; details: A-431, MTT, 72 h, median (95% Confidence Intervals)
Description: (§1) The following human cell lines were used in this study: (i) epidermoid carcinoma A-431 (ATCC® CRL-1555), (ii) lung carcinoma A549 (ATCC® CCL-185), (iii) colorectal carcinoma HCT116 (ATCC® CCL-247), (iv) HCT116p53^−/−, (v) glioblastoma U-87 MG (ATCC® HTB-14), (vi) glioblastoma U-251 MG (ECACC 09063001), (vii) breast adenocarcinoma MCF7 (ATCC® HTB-22), (viii) breast adenocarcinoma MDA-MB-231 (ECACC 92020424), (ix) papillomavirus-related cervical squamous cell carcinoma SKG-IIIa (RRID:CVCL_1704), (x) cervical adenocarcinoma HeLa (ATCC® CCL-2), (xi) bone osteosarcoma U-2 OS (ATCC® HTB-96), (xii) hepatocellular carcinoma HEPG2 (ATCC® HB-8065), (xiii) larynx squamous cell carcinoma BICR 18 (ECACC 06051601), (ix) kidney HEK 293T (ATCC® CRL-11268), (xv) normal lung fibroblasts MRC-5 (ATCC® CCL-171), (xvi) normal fibroblasts BJ (ATCC® CRL-2522). The HCT116p53^−/− cell line was a kind gift from professor Bert Vogelstein (John Hopkin’s University, Baltimore, MD, USA). The remaining cell lines were purchased from ATCC (Manassas, VA, USA) or Sigma-Aldrich by Merck (Darmstadt, Germany).
(§2) Cells were cultured in minimal or Dulbecco’s modified Eagle’s or Ham’s F10 medium supplemented with 10% fetal bovine serum (Gibco by Thermo Fisher Scientific, Waltham, MA, USA) and (for BICR 18) 0.4 μg/mL hydrocortizone (Sigma-Aldrich by Merck, Darmstadt, Germany) under standard culture conditions (37 °C, 5% CO2) in a humidified incubator with an atmospheric oxygen.
(§3) The viability of cells was assayed by measuring the conversion of MTT (3-(4,5-dimethylthiazol-2-yl)-2,5-diphenyltetrazolium bromide) to the formazan (the rate of this reaction is proportional to the number of surviving cells). Cells were seeded in a 96-well plate at a density of 2500–3500 cells per well, 24 h before treatment. […] MTT stock solution (Sigma-Aldrich) was added at the final concentration 0.5 mg/mL. After 4 h of incubation at 37 °C, water-insoluble formazan was dissolved in a lysis buffer containing 20% SDS, 50% DMF, 2.5% hydrochloric acid and 2.5% acetic acid. Optical densities were measured at 570 nm using a scanning multi-well spectrophotometer ([…] Detection Platform; Beckman Coulter, Brea, CA, USA). At least three independent experiments of viability were conducted.

lung carcinoma A549 = test: MTT cell viability assay, A549; assay type: cell-based, human; details: 72 h, median (95% Confidence Intervals)
Description: as §1, §2, §3

[2] = test system: colorectal carcinoma HCT116; test: MTT cell viability assay, HCT116; assay type: cell-based, human; details: median (95% Confidence Intervals)
Description: as §1, §2, §3

[3] = test system: colorectal carcinoma HCT116p53^−/−; test: MTT cell viability assay, HCT116p53−/−; assay type: cell-based, human; details: 72 h, median (95% Confidence Intervals)
Description: as §1, §2, §3

glioblastoma U-87 MG = test: MTT cell viability assay, U-87 MG; assay type: cell-based, human; details: 72 h, median (95% Confidence Intervals)
Description: as §1, §2, §3

[4] = test system: breast adenocarcinoma MCF7; test: MTT cell viability assay, MCF7; assay type: cell-based, human; details: 72 h, median (95% Confidence Intervals)
Description: as §1, §2, §3

[5] = test system: breast adenocarcinoma MDA-MB-231; test: MTT cell viability assay, MDA-MB-231; assay type: cell-based, human; details: MDA-MB-231, MTT, 72 h, median (95% Confidence Intervals)
Description: as §1, §2, §3

[6] = test system: cervical squamous cell carcinoma SKG-IIIa; test: MTT cell viability assay, SKG-IIIa; assay type: cell-based, human; details: SKGIIIa, 72 h, median (95% Confidence Intervals)
Description: as §1, §2, §3

[7] = test system: cervical adenocarcinoma HeLa; test: MTT cell viability assay, HeLa; assay type: cell-based, human; details: 72 h, median (95% Confidence Intervals)
Description: as §1, §2, §3

bone osteosarcoma U-2 OS = test: MTT cell viability assay, U-2 OS; assay type: cell-based, human; details: 72 h, median (95% Confidence Intervals)
Description: as §1, §2, §3

[8] = test system: hepatocellular carcinoma HEPG2; test: MTT cell viability assay, HEPG2; assay type: cell-based, human; details: 72 h, median (95% Confidence Intervals)
Description: as §1, §2, §3

[9] = test system: larynx squamous cell carcinoma BICR 18; test: MTT cell viability assay, BICR 18; assay type: cell-based, human; details: BICR 18, MTT, 72 h, median (95% Confidence Intervals)
Description: as §1, §2, §3

kidney HEK 293T = test: MTT cell viability assay, HEK 293T; assay type: cell-based, human; details: 72 h, median (95% Confidence Intervals)
Description: as §1, §2, §3

[10] = test system: normal lung fibroblasts MRC-5; test: MTT cell viability assay, MRC-5; assay type: cell-based, human; details: MRC-5, MTT, 72 h, median (95% Confidence Intervals)
Description: as §1, §2, §3

normal fibroblasts BJ = test: MTT cell viability assay, BJ; assay type: cell-based, human; details: 72 h, median (95% Confidence Intervals)
Description: as §1, §2, §3

[11] = molecular target: T1, recombinant human PDE5A/PDE5 protein (Homo sapiens, UniProt O76074); test: colorimetric PDE Activity Assay Kit (Abcam), PDE5 inhibition; assay type: biochemical; details: for IC50: 200 μM cGMP, 40 ng enzyme, 20 min at 37 °C, 4% DMSO, read-out: IC50 against human PDE5; for Ki: read-out: Ki against human PDE5
T1 construct: purchased Abcam
Description: A high concentration of cGMP substrate was used (200 μM) due to the moderate sensitivity of the aforementioned assay.
The inhibitory effect of the tested compounds was measured using colorimetric PDE Activity Assay Kit (Abcam, Cambridge, UK). This assay allows the quantification of 5′-nucleotide released in the reaction catalyzed by tested phosphodiesterase, PDE5, using the additional enzyme 5′-nucleotidase to cleave the mentioned product, and next, using modified Malachite Green assay, the phosphate is quantified. The assay was carried in a 96-well plate at a volume of 40 μL in an assay buffer, containing 40 ng recombinant human PDE5A/PDE5 protein (Abcam), 200 μM cGMP, 25 kU 5′-nucleotidase and serially diluted ligand to preserve 4% of DMSO. The reaction was initiated with the enzyme and kept going for 20 min at 37 °C. The reaction was stopped by adding 80 μL of Green Assay reagent. After incubation at room temperature for 30 min (to develop color proportional to phosphate content), the absorbance at 620 nm was measured with The SpectraMax iD3 Multi-Mode Microplate Reader (Molecular Devices, San Jose, CA, USA). Inhibitors concentrations varied in the range of 2 pM–200 μM. Each experiment was repeated 4–5 times and IC50 values were calculated by global fitting of the sigmoidal dose response equation implemented in Origin 9.0 package (www.originlab.com). For each experiment, control reaction with no enzyme added and without inhibitor was also performed.

glioblastoma U-251 MG = test: MTT cell viability assay, U-251 MG; assay type: cell-based, human; details: 72 h, median (95% Confidence Intervals)
Description: as §1, with “The remaining cell lines were purchased from ATCC (Manassas, VA, USA) or Sigma-Aldrich by Merck (Darmstadt, Germany).” left out
The viability of cells was assayed by measuring the conversion of MTT (3-(4,5-dimethylthiazol-2-yl)-2,5-diphenyltetrazolium bromide) to the formazan (the rate of this reaction is proportional to the number of surviving cells). […] Optical densities were measured at 570 nm using a scanning multi-well spectrophotometer ([…] Detection Platform; Beckman Coulter, Brea, CA, USA). […]

IC50 ([1]; Homo sapiens)	IC50 ([2]; Homo sapiens, HCT-116, 72 h)	IC50 ([3]; Homo sapiens)	IC50 (glioblastoma U-87 MG; Homo sapiens)	IC50 ([4]; Homo sapiens)	IC50 ([5]; Homo sapiens)	IC50 ([6]; Homo sapiens)	IC50 ([7]; Homo sapiens)	IC50 (bone osteosarcoma U-2 OS; Homo sapiens, U2OS)	IC50 [11]	Ki [11]	Structure (SMILES)	IC50 (kidney HEK 293T; Homo sapiens)	IC50 ([10]; Homo sapiens, MRC5)	IC50 (normal fibroblasts BJ; Homo sapiens, Fibroblast)	also measured
46.6 µM	58.7 µM	64.4 µM	99 µM	36.3 µM	144 µM	57.3 µM	78.4 µM	88.8 µM	39 ± 27 µM	0.39 ± 0.36 µM	CN1CC(=O)N(Cc2cc3c(cc2Br)OCO3)[C@@H](Cc2c[nH]c3ccccc23)C1=O [Compound 7b, (S)-3-((1H-indol-3-yl)methyl)-4-((6-bromobenzo[d][1,3]dioxol-5-yl)methyl)-1-methylpiperazine-2,5-dione]	13.1 µM	96.6 µM	103 µM	IC50 (lung carcinoma A549; Homo sapiens): 131 µM; IC50 ([8]; Homo sapiens): 124 µM; IC50 ([9]; Homo sapiens): 142 µM
											N.N.[Cl][Pt][Cl] [Cisplatin, cisplatin, reference compound]				IC50 [1]: 1.51 µM; IC50 (lung carcinoma A549): 27.2 µM; IC50 ([2]; 72 h): 7.44 µM; IC50 [3]: 14.1 µM; IC50 (glioblastoma U-87 MG): 4.96 µM; IC50 (glioblastoma U-251 MG): 2.61 µM; IC50 [4]: 11 µM; IC50 [5]: 22.3 µM; IC50 [6]: 4.84 µM; IC50 [7]: 13.5 µM; IC50 (bone osteosarcoma U-2 OS): 7.55 µM; IC50 [8]: 7.8 µM; IC50 [9]: 1.69 µM; IC50 (kidney HEK 293T): 6.25 µM; IC50 [10]: 3.92 µM; IC50 (normal fibroblasts BJ): 5.58 µM
112 µM	83.7 µM	143 µM	151 µM	54.1 µM	128 µM	87.6 µM	93.5 µM	88.3 µM	260 ± 210 µM	2.6 ± 2.7 µM	CN1CC(=O)N(Cc2ccc3c(c2)OCO3)[C@@H](Cc2c[nH]c3ccccc23)C1=O [Compound 6b, (S)-3-((1H-indol-3-yl)methyl)-4-(benzo[d][1,3]dioxol-5-ylmethyl)-1-methylpiperazine-2,5-dione]	13 µM	127 µM	143 µM	
